{
  "source": "ChEMBL document CHEMBL1128218",
  "about": "“New alpha-thiol dipeptide dual inhibitors of angiotensin-I converting enzyme and neutral endopeptidase EC 3.4.24.11” (J Med Chem, 1995)",
  "target": "T1, Angiotensin-converting enzyme (Rattus norvegicus) (UniProt P47820)",
  "T1 sequence (whole entry)": "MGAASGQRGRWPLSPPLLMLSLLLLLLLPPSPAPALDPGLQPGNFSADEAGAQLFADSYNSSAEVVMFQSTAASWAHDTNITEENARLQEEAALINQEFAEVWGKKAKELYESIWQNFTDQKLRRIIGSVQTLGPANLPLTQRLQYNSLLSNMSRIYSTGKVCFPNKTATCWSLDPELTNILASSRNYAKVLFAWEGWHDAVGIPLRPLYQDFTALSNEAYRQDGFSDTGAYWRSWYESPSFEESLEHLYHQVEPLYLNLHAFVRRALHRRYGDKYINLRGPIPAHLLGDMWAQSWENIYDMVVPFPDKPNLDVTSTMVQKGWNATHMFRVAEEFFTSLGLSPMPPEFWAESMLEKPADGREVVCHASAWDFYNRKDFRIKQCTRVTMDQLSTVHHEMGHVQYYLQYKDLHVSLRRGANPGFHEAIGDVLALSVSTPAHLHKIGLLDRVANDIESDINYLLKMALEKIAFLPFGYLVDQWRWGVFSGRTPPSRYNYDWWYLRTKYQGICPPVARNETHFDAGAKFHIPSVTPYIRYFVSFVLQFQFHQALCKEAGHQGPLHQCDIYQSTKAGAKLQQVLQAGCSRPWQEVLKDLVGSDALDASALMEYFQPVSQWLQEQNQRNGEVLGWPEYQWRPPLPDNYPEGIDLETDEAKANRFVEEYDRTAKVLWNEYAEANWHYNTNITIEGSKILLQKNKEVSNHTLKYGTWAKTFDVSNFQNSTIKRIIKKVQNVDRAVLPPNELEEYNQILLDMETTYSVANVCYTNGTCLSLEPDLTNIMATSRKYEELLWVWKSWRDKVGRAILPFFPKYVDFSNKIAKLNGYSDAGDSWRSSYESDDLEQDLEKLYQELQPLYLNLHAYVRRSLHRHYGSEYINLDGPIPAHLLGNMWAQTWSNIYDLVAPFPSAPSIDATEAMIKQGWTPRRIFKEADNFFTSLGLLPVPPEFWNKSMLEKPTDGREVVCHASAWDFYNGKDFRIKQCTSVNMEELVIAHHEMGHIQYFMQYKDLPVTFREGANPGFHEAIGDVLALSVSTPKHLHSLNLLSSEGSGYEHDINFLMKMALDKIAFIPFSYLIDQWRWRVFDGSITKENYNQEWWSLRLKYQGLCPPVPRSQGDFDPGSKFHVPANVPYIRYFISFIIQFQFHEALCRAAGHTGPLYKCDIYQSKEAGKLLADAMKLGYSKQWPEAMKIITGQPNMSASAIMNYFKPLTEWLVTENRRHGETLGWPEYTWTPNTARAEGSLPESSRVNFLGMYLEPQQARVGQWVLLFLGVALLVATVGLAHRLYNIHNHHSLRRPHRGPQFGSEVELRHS",
  "assay": "Evaluation of plasma inhibition of Angiotensin I converting enzyme activity in conscious rat 1 hour after oral administration at a dose of 10 mg/kg",
  "assay_type": "functional, organism-based",
  "parameters": "dose 10 mg/kg",
  "data": [
    {"smiles": "CC(C)[C@H](S)C(=O)NC1(C(=O)N[C@@H](Cc2ccc(O)cc2)C(=O)O)CCCC1", "values": [
      {"measurement": "inhibition", "result": 48, "unit": "%"}
    ]},
    {"smiles": "CC(C)[C@H](S)C(=O)NC1(C(=O)N[C@@H](Cc2c[nH]c3ccccc23)C(=O)O)CCCC1", "values": [
      {"measurement": "inhibition", "result": 45, "unit": "%"}
    ]}
  ]
}
